From the NIST ThermoML archive (doi:10.1021/acs.jced.8b00153)
Numbers after ± are expanded uncertainties.

Test: relative permittivity at various frequencies (dimensionless)
Details: 100 kPa, Liquid, Frequency=2 MHz, Parallel plate capacitor

Compound | relative permittivity (278.15 K) | relative permittivity (280.65 K) | relative permittivity (283.15 K) | relative permittivity (285.65 K) | relative permittivity (288.15 K) | relative permittivity (290.65 K) | relative permittivity (293.15 K) | relative permittivity (295.65 K) | relative permittivity (298.15 K) | relative permittivity (300.65 K) | relative permittivity (303.15 K) | relative permittivity (305.65 K) | relative permittivity (308.15 K) | relative permittivity (310.65 K) | relative permittivity (313.15 K) | relative permittivity (315.65 K) | relative permittivity (318.15 K) | relative permittivity (320.65 K) | relative permittivity (323.15 K) | relative permittivity (325.65 K) | other results
CCc1ccco1 [2-ethylfuran] | 2.837 ± 0.33 | 2.823 ± 0.32 | 2.813 ± 0.32 | 2.798 ± 0.32 | 2.784 ± 0.32 | 2.766 ± 0.32 | 2.756 ± 0.32 | 2.739 ± 0.32 | 2.725 ± 0.32 | 2.709 ± 0.32 | 2.699 ± 0.32 | 2.682 ± 0.32 | 2.668 ± 0.32 | 2.657 ± 0.32 | 2.643 ± 0.32 | 2.626 ± 0.32 | 2.611 ± 0.32 | 2.601 ± 0.32 | 2.583 ± 0.31 | 2.573 ± 0.31 | relative permittivity (328.15 K): 2.559 ± 0.31; relative permittivity (330.65 K): 2.544 ± 0.31; relative permittivity (333.15 K): 2.527 ± 0.31; relative permittivity (335.65 K): 2.516 ± 0.31; relative permittivity (338.15 K): 2.503 ± 0.31
CCc1cccs1 [2-ethylthiophene] | 2.968 ± 0.33 | 2.959 ± 0.33 | 2.946 ± 0.33 | 2.936 ± 0.33 | 2.929 ± 0.33 | 2.916 ± 0.33 | 2.911 ± 0.33 | 2.9 ± 0.33 | 2.887 ± 0.33 | 2.878 ± 0.33 | 2.871 ± 0.33 | 2.858 ± 0.33 | 2.848 ± 0.33 | 2.838 ± 0.33 | 2.833 ± 0.33 | 2.82 ± 0.32 | 2.81 ± 0.32 | 2.799 ± 0.32 | 2.792 ± 0.32 | 2.782 ± 0.32 | relative permittivity (328.15 K): 2.775 ± 0.32; relative permittivity (330.65 K): 2.766 ± 0.32; relative permittivity (333.15 K): 2.753 ± 0.32; relative permittivity (335.65 K): 2.745 ± 0.32; relative permittivity (338.15 K): 2.734 ± 0.32
